Test results from US3935203A, “Derivatives of 3-oxo-2,3-dihydro-1,4-benzoxazine” (CERPHA, priority 1972, dated 1976).

Legend:
[1] = system: pain induced by heat contact stimulation; assay: Analgesic activity, Eddy's test in mice (hot plate); assay type: in vivo; settings: for ED50 / inhibition in vivo at 400 mg/kg / inhibition in vivo at 200 mg/kg: Mus musculus, po, 0.5 h; for ED50 / ED50 Eddy's test: per os, 30 minutes after administration, heat stimulus; for ED50 Eddy's test: 30 min; for inhibition in vivo at 400 mg/kg: 400 mg/kg per os; for inhibition in vivo at 200 mg/kg: 200 mg/kg per os
Procedure: (§1) Pain is induced by heat contact stimulation (mice placed on a heating plate kept at 56.5°C) and the time taken to react to the stimulus (licking of the front paws) is measured.
(§2) Batches of 10 animals selected at random are examined 30 minutes after the oral administration of the product to be tested in a gummy suspension.
(§3) The percentage of analgesic activity is established by taking as 100% activity the average response time of the control animals increased by 10 seconds.

[2] = system: pain induced by the intraperitoneal injection of acetic acid; assay: Analgesic activity, Koster's test on mice (acetic acid writhing); assay type: in vivo, male mice; settings: for ED50 / inhibition in vivo at 400 mg/kg / inhibition in vivo at 200 mg/kg: Mus musculus, po; for inhibition in vivo at 400 mg/kg: 400 mg/kg per os; for inhibition in vivo at 200 mg/kg: 200 mg/kg per os
Procedure: (§4) The pain is induced by the intraperitoneal injection of 0.10 ml/10 g of a 3% acetic acid solution.
(§5) The painful crises thus obtained (writhing of the trunk, stretching of the hind legs) are counted for 20 minutes following the injection.
(§6) The product to be tested was administered 30 minutes before the pain had been induced in batches of 10 male mice distributed at random. The percentage of analgesic activity is represented by the percentage decrease in the number of reactions established in relation to the controls.

in vivo = settings: mouse, po
[3] = system: pain (heat stimulus and chemical stimulus); assay: Antalgic power compared with amidopyrine (Eddy's and Koster's tests); assay type: in vivo, mice; settings: per os, reference amidopyrine
Procedure: as §1, §2, §3, §4, §5, §6

kaolin oedema = assay: Anti-oedematous activity, kaolin oedema in rats (Wilhelmi and Domenjoz); assay type: in vivo, male rats; settings: per os; for ED50: Rattus norvegicus, po, paw volume 5 hours after kaolin, read-out: Kaolin oedema test ED50 per os
Procedure: 3. […] ACTIVITY Kaolin oedema in rats in accordance with […] The product to be tested was orally administered to batches of 8 male rats distributed at random 30 minutes before the intraplantar injection of 0.15 ml. of a 10% kaolin suspension. The volume of the paw is measured by plethysmography 5 hours after injection of the irritant. For each rat, the percentage oedema is evaluated in relation to the initial volume. The percentage activity corresponds to the percentage decrease in oedema (average oedema of the treated animals in comparison with the average oedema of the control animals).

[4] = Table III
[5] = per os, 30 minutes before acetic acid, chemical stimulus

SMILES: Cc1c(N(C)C)c(=O)n(-c2ccccc2)n1C [Amidopyrine, amidopyrine, reference compound]
- ED50 [1]: 300 mg/kg
- ED50 [2, 5]: 120 mg/kg
- LD50 (in vivo): 1850 mg/kg

SMILES: CC1Oc2ccc(Cl)cc2N(CC(O)CO)C1=O (stereo not drawn) [Example 1, 2-methyl-3-oxo-4-(2,3-dihydroxypropyl)-6-chloro-2,3-dihydro-1,4-benzoxazine]
- ED50 [1]: 60 mg/kg
- ED50 Eddy's test [1]: 63 mg/kg
- ED50 [2, 5]: 60 mg/kg
- ED50 Koster's test [2, 5]: 57 mg/kg
- antalgic power relative to amidopyrine [3]: as much as five times the activity of this reference product
- LD50 (in vivo): 850 mg/kg

SMILES: CCC1Oc2ccc(Cl)cc2N(CC(O)CO)C1=O (stereo not drawn) [Example 2, 2-ethyl-3-oxo-4-(2,3-dihydroxypropyl)-6-chloro-2,3-dihydro-1,4-benzoxazine]
- ED50 [1]: 60 mg/kg
- ED50 Eddy's test [1]: 61 mg/kg
- ED50 [2, 5]: 60 mg/kg
- antalgic power relative to amidopyrine [3]: as much as five times the activity of this reference product
- LD50 (in vivo): 1660 mg/kg

SMILES: O=C1COc2ccc(Cl)cc2N1CC(O)CO (stereo not drawn) [Example 3, 3-oxo-4-(2,3-dihydroxypropyl)-6-chloro-2,3-dihydro-1,4-benzoxazine]
- ED50 [1]: 200 mg/kg
- ED50 [2, 5]: 100 mg/kg
- ED50 (kaolin oedema): 200 mg/kg
- anti-oedematous activity compared with phenylbutazone (kaolin oedema; reference phenylbutazone): comparable with that of phenylbutazone
- LD50 (in vivo): 1700 mg/kg

SMILES: CC1Oc2cc(Br)c(Cl)cc2N(CC(O)CO)C1=O (stereo not drawn) [Example 4, 2-methyl-3-oxo-4-(2,3-dihydroxypropyl)-6-chloro-7-bromo-2,3-dihydro-1,4-benzoxazine]
- inhibition in vivo at 400 mg/kg [1]: 42%
- inhibition in vivo at 400 mg/kg [2]: 68%
- LD50 (in vivo): > 1500 mg/kg

SMILES: Cc1ccc2c(c1)N(CC(O)CO)C(=O)C(C)O2 (stereo not drawn) [Example 5, 2-methyl-3-oxo-4-(2,3-dihydroxypropyl)-6-methyl-2,3-dihydro-1,4-benzoxaine]
- inhibition in vivo at 400 mg/kg [1]: 60%
- inhibition in vivo at 400 mg/kg [2]: 66%
- LD50 (in vivo): > 1500 mg/kg

SMILES: CCCc1cc(OC)c2c(c1)N(CC(O)CO)C(=O)C(C)O2 (stereo not drawn) [Example 6, 2-methyl-3-oxo-4-(2,3-dihydroxypropyl)-6-n-propyl-8-methoxy-2,3-dihydro-1,4-benzoxazine]
- inhibition in vivo at 400 mg/kg [1]: 52%
- inhibition in vivo at 400 mg/kg [2]: 46%
- LD50 (in vivo): > 1500 mg/kg

SMILES: CC1Oc2ccc([N+](=O)[O-])cc2N(CC(O)CO)C1=O (stereo not drawn) [Example 7, 2-methyl-3-oxo-4-(2,3-dihydroxypropyl)-6-nitro-2,3-dihydro-1,4-benzoxazine]
- ED50 [1]: 300 mg/kg
- ED50 [2, 5]: 300 mg/kg
- ED50 (kaolin oedema): 400 mg/kg
- DL50 per os in mice [4]: > 1000 mg/kg
- LD50 (in vivo): > 1000 mg/kg

SMILES: CCC1Oc2ccccc2N(CC(O)CO)C1=O (stereo not drawn) [Example 8, 2-ethyl-3-oxo-4-(2,3-dihydroxypropyl)-2,3-dihydro-1,4-benzoxazine]
- inhibition in vivo at 200 mg/kg [1]: 5%
- inhibition in vivo at 200 mg/kg [2]: 21%
- LD50 (in vivo): 1200 mg/kg

SMILES: CCCC1Oc2ccc(Cl)cc2N(CC(O)CO)C1=O (stereo not drawn) [Example 9, 2-n-propyl-3-oxo-4-(2,3-dihydroxypropyl)-6-chloro-2,3-dihydro-1,4-benzoxazine]
- ED50 [1]: 100 mg/kg
- ED50 [2, 5]: 80 mg/kg
- LD50 (in vivo): > 1500 mg/kg

SMILES: CCC1Oc2ccc(Br)cc2N(CC(O)CO)C1=O (stereo not drawn) [Example 10, 2-ethyl-3-oxo-4-(2,3-dihydroxypropyl)-6-bromo-2,3-dihydro-1,4-benzoxazine]
- ED50 [1]: 200 mg/kg
- ED50 [2, 5]: 300 mg/kg
- LD50 (in vivo): > 1500 mg/kg

SMILES: COc1ccc2c(c1)N(CC(O)CO)C(=O)C(C)O2 (stereo not drawn) [Example 11, 2-methyl-3-oxo-4-(2,3-dihydroxypropyl)-6-methoxy-2,3-dihydro-1,4-benzoxazine]
- inhibition in vivo at 200 mg/kg [1]: 16%
- inhibition in vivo at 200 mg/kg [2]: 10%
- ED50 (kaolin oedema): 200 mg/kg
- DL50 per os in mice [4]: > 1000 mg/kg
- LD50 (in vivo): > 1000 mg/kg

SMILES: C=CCc1cc(OC)c2c(c1)N(CC(O)CO)C(=O)C(C)O2 (stereo not drawn) [Example 12, 2-methyl-3-oxo-4-(2,3-dihydroxypropyl)-6-allyl-8-methoxy-2,3-dihydro-1,4-benzoxazine]
- ED50 [1]: 300 mg/kg
- ED50 [2, 5]: 300 mg/kg
- LD50 (in vivo): > 1500 mg/kg

SMILES: CCCCC1Oc2ccc(Cl)cc2N(CC(O)CO)C1=O (stereo not drawn) [Example 13, 2-n-butyl-3-oxo-4-(2,3-dihydroxypropyl)-6-chloro-2,3-dihydro-1,4-benzoxazine]
- ED50 [1]: 100 mg/kg
- ED50 [2, 5]: 100 mg/kg
- LD50 (in vivo): 1500 mg/kg

SMILES: CC(=O)OCC(CN1C(=O)C(C)Oc2ccc(Cl)cc21)OC(C)=O (stereo not drawn) [Example 14, 2-methyl-3-oxo-4-(2,3-diacetoxypropyl)-6-chloro-2,3-dihydro-1,4-benzoxazine]
- inhibition in vivo at 400 mg/kg [1]: 43%
- inhibition in vivo at 400 mg/kg [2]: 35%
- ED50 (kaolin oedema): 400 mg/kg
- DL50 per os in mice [4]: > 1500 mg/kg
- LD50 (in vivo): > 1500 mg/kg

SMILES: CCC1Oc2ccc(Cl)cc2N(CC(COC(C)=O)OC(C)=O)C1=O (stereo not drawn) [Example 15, 2-ethyl-3-oxo-4-(2,3-diacetoxypropyl)-6-chloro-2,3-dihydro-1,4-benzoxazine]
- inhibition in vivo at 200 mg/kg [1]: 14%
- inhibition in vivo at 200 mg/kg [2]: 20%
- ED50 (kaolin oedema): 400 mg/kg
- DL50 per os in mice [4]: > 1500 mg/kg
- LD50 (in vivo): > 1500 mg/kg

SMILES: CC(=O)OCC(CN1C(=O)COc2ccc(Cl)cc21)OC(C)=O (stereo not drawn) [Example 16, 3-oxo-4-(2,3-diacetoxypropyl)-6-chloro-2,3-dihydro-1,4-benzoxazine]
- inhibition in vivo at 400 mg/kg [1]: 28%
- inhibition in vivo at 400 mg/kg [2]: 51%
- ED50 (kaolin oedema): 400 mg/kg
- DL50 per os in mice [4]: > 1500 mg/kg
- LD50 (in vivo): > 1500 mg/kg

SMILES: CCCCC1C(=O)N(c2ccccc2)N(c2ccccc2)C1=O [Phenylbutazone, phenylbutazone, reference compound]
- ED50 (kaolin oedema): 200 mg/kg
